Structures are written as SMILES.

The assay has as its target T1, HIV integrase (Human immunodeficiency virus type 1 group M subtype B, UniProt P04585).
T1 construct: strand transfer reaction catalyzed by the recombinant integrase in vitro
The assay can be described thus: HIV integrase assay: strand transfer catalyzed by recombinant integrase. Type of assay: biochemical. The following applies: strand transfer activity of recombinant integrase. How it is done: HIV Integrase Assay: Strand Transfer Catalyzed by Recombinant Integrase
Assays for the strand transfer activity of integrase were conducted according to Wolfe, A. L. et al., J. Virol. 70, 1424 (1996, hereby incorporated by reference for these purposes. Data for representative compounds of the present invention follow: […]
Take `CC(=O)OC1C(O)C2=C(CCC3C2(C)CC(OC(=O)CCCCCCCCCCCCCCCO)C(OS(=O)(=O)O)C3(C)C)C2=CCC(C(C)CCC3(C(C)(C)O)CO3)C21C` (centres unmarked) [Compound A1]: the 50% inhibitory concentration (IC50) (commonly the concentration that gives 50% inhibition) stood at 14 µM.
`C=C(CCC(C)C1CCC2C3=C(C(O)C(OC(C)=O)C21C)C1(C)CC(O)C(OS(=O)(=O)O)C(C)(C)C1CC3)C(C)C` (centres unmarked) [Compound A3]: the IC50 was 15 µM.
The same measure for `C=C(CCC(C)C1CC=C2C3=C(C(O)C(OC(C)=O)C21C)C1(C)CC(O)C(OC(=O)CCC(=O)O)C(C)(C)C1CC3)C(C)C` (centres unmarked) [Compound J]: 16 µM; for `C=C(CCC(C)C1CC=C2C3=C(C(O)C(OC(C)=O)C21C)C1(C)CC(OC(=O)CCC(=O)O)C(O)C(C)(C)C1CC3)C(C)C` (centres unmarked) [Compound K]: 68 µM.
Next, `C=C(CC[C@@H](C)[C@H]1CC=C2C3=C([C@@H](O)[C@H](OC(C)=O)C21C)C1(C)C[C@@H](OC(=O)CN)[C@H](OC(=O)CN)C(C)(C)[C@@H]1CC3)C(C)C` (some centres unmarked) [Compound X]: 5 µM.
